In assay [1] the target is human RIPK1 (Homo sapiens (Human), UniProt Q13546). Put plainly: KINOMEscan binding assay, human RIPK1. Conditions: Table 21. The protocol: (§1) Binding affinity of the test compounds for human MLKL (full length), mouse MLKL (full length), human RIPK1 and human RIPK3 was determined using the KINOMEscan™ technology developed by DiscoverX (USA; http://www.discoverx.com). The assay was conducted according to manufacturer instructions.
(§2) Kinase assays. For most assays, kinase-tagged T7 phage strains were grown in parallel in 24-well blocks in an E. coli host derived from the BL21 strain. E. coli were grown to log-phase and infected with T7 phage from a frozen stock (multiplicity of infection=0.4) and incubated with shaking at 32° C. until lysis (90-150 minutes). The lysates were centrifuged (6,000×g) and filtered (0.2 μm) to remove cell debris. The remaining kinases were produced in HEK-293 cells and subsequently tagged with DNA for qPCR detection. […] The liganded beads were blocked with excess biotin and washed with blocking buffer (SeaBlock (Pierce), 1% BSA, 0.05% Tween 20, 1 mM DTT) to remove unbound ligand and to reduce non-specific phage binding. […] All reactions were performed in polypropylene 384-well plates in a final volume of 20 μL. […] The kinase concentration in the eluates was measured by qPCR.
(§3) An 11-point 3-fold serial dilution of each test compound was prepared in 100% DMSO at 100× final test concentration and subsequently diluted to 1× in the assay (final DMSO concentration=1%). Most Kos were determined using a compound top concentration=30,000 nM.
(§4) KD for each test compound was calculated with a standard dose-response curve using the Hill equation (equation (1)): […]
(§5) The Hill Slope was set to −1.
(§6) Curves were fitted using a non-linear least square fit with the Levenberg-Marquardt algorithm.

In assay [2] the target is human RIPK3 (Homo sapiens (Human), UniProt Q9Y572). Put plainly: KINOMEscan binding assay, human RIPK3. Conditions: Table 21. The protocol:
as §1, §2, §3, §4, §5, §6

human RIPK3, sequence (Q9Y572 whole entry): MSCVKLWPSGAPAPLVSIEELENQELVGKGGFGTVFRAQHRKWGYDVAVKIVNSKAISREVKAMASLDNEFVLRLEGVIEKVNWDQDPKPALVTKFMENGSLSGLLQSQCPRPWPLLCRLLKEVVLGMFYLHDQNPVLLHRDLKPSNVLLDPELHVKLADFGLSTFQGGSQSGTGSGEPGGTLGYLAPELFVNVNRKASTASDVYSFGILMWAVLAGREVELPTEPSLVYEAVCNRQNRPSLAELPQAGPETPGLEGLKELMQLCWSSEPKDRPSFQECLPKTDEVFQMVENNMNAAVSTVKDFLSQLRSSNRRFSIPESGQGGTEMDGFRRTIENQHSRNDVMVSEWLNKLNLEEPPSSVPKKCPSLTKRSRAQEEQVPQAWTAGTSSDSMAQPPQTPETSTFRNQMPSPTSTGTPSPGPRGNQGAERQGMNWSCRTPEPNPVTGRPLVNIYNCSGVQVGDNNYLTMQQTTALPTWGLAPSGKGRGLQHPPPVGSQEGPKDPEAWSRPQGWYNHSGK
human RIPK1, sequence (Q13546 whole entry): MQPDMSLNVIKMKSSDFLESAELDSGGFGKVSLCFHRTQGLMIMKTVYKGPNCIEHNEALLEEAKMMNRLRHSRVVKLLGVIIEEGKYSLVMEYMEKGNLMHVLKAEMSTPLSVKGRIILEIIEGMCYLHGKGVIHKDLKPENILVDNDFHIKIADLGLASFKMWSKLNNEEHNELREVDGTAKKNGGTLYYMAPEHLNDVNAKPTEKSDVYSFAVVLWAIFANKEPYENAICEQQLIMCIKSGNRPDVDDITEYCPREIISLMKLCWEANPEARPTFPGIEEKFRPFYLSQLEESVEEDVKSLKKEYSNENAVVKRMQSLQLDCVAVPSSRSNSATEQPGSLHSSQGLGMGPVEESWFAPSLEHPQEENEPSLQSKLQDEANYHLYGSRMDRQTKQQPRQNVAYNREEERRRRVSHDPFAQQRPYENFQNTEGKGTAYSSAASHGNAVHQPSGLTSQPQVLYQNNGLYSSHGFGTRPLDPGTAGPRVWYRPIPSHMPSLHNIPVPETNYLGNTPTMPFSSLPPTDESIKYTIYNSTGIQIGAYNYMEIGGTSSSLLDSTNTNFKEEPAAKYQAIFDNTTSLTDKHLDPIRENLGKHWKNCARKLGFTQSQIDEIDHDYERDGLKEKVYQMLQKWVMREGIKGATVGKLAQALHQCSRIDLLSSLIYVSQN

As to `C[C@H](Oc1cc(-c2nn(C)c3c(-c4ccc(N5CCN(C)CC5)nc4)cnc(N)c23)ccc1NS(=O)(=O)C(F)F)c1ccc(F)cc1` [Compound 107, (S)-N-(4-(4-amino-1-methyl-7-(6-(4-methylpiperazin-1-yl)pyridin-3-yl)-1H-pyrazolo[4,3-c]pyridin-3-yl)-2-(1-(4-fluorophenyl)ethoxy)phenyl)-1,1-difluoromethanesulfonamide], the Kd in assay [1] and in assay [2] was over 10 µM throughout.
For the compound `C[C@H](Oc1cc(-c2nn(C)c3c(-c4cnn(C5CCOCC5)c4)cnc(N)c23)ccc1NS(C)(=O)=O)c1ccc(F)cc1` [Compound 119, (S)-N-(4-(4-amino-1-methyl-7-(1-(tetrahydro-2H-pyran-4-yl)-1H-pyrazol-4-yl)-1H-pyrazolo[4,3-c]pyridin-3-yl)-2-(1-(4-fluorophenyl)ethoxy)phe-nyl)methanesulfonamide], the Kd in assay [1] and in assay [2] was over 10 µM throughout.
For the compound `C[C@H](Oc1cc(-c2nn(C)c3c(-c4ccn(C)c4)cnc(N)c23)ccc1NS(=O)(=O)C(F)F)c1ccc(F)cc1` [Compound 126, (S)-N-(4-(4-amino-1-methyl-7-(1-methyl-1H-pyrrol-3-yl)-1H-pyrazolo[4,3-c]pyridin-3-yl)-2-(1-(4-fluorophenyl)ethoxy)phenyl)-1,1-difluoromethanesulfonamide], the Kd in assay [1] and in assay [2] was over 10 µM throughout.
`C[C@H](Oc1cc(-c2nn(C)c3c(-c4cnn5c4CNCC5)cnc(N)c23)ccc1NS(=O)(=O)C(F)F)c1ccc(F)cc1` [Compound 90, (S)—N-(4-(4-amino-1-methyl-7-(4,5,6,7-tetrahydropyrazolo[1,5-a]pyrazin-3-yl)-1H-pyrazolo[4,3-c]pyridin-3-yl)-2-(1-(4-fluorophenyl)ethoxy)phenyl)-1,1-difluoromethanesulfonamide]: the Kd in assay [1] and in assay [2] was over 10 µM each time.
On to `C[C@H](Oc1cc(-c2nn(C)c3c(-c4ccc(Cl)cc4)cnc(N)c23)ccc1NS(=O)(=O)C(F)F)c1ccc(F)cc1` [Compound 87, (S)-N-(4-(4-amino-7-(4-chlorophenyl)-1-methyl-1H-pyrazolo[4,3-c]pyridin-3-yl)-2-(1-(4-fluorophenyl)ethoxy)phenyl)-1,1-difluoromethanesulfonamide], for which the Kd in assay [1] and in assay [2] was over 10 µM each time.
Regarding `C[C@H](Oc1cc(-c2nn(C)c3c(-c4ccnc(C(F)F)c4)cnc(N)c23)ccc1NS(=O)(=O)C(F)F)c1ccc(F)cc1` [Compound 57, (S)-N-(4-(4-amino-7-(2-(difluoromethyl)pyridin-4-yl)-1-methyl-1H-pyrazolo[4,3-c]pyridin-3-yl)-2-(1-(4-fluorophenyl)ethoxy)phenyl)-1,1-difluoromethanesulfonamide], the results for the Kd in assay [1] and in assay [2] were over 10 µM and 0.1 to 10 µM, respectively.
In the case of `C[C@H](Oc1cc(-c2nn(C)c3c(-c4cnn(CC(F)(F)F)c4)cnc(N)c23)ccc1NS(=O)(=O)C(F)F)c1ccc(F)cc1` [Compound 116, (S)-N-(4-(4-amino-1-methyl-7-(1-(2,2,2-trifluoroethyl)-1H-pyrazol-4-yl)-1H-pyrazolo[4,3-c]pyridin-3-yl)-2-(1-(4-fluorophenyl)ethoxy)phenyl)-1,1-difluoromethanesulfonamide], the Kd in assay [1] and in assay [2] was over 10 µM each time.
As for `C[C@H](Oc1cc(-c2nn(C)c3c(-c4cnn(C(F)(F)F)c4)cnc(N)c23)ccc1NS(=O)(=O)C(F)F)c1ccc(F)cc1` [Compound 134, (S)-N-(4-(4-amino-1-methyl-7-(1-(trifluoromethyl)-1H-pyrazol-4-yl)-1H-pyrazolo[4,3-c]pyridin-3-yl)-2-(1-(4-fluorophenyl)ethoxy)phenyl)-1,1-difluoromethanesulfonamide], the Kd in assay [1] and in assay [2] was over 10 µM each time.

The values above are taken from patent US20250115598A1 (Anaxis Pharma Pty Ltd, priority 2021, published 2025).
